Experimental data as given in US20250302080A1, “SWEETNESS AND/OR FLAVOR ENHANCER” (AJINOMOTO CO., INC., priority 2022, published 2025).

Key:
[1] = Sensory evaluation of sweetness intensity in RebM solution (Experimental Examples 20-21)
Experimental: A negative control RebM solution (0.063 wt % RebM solution) was prepared by dissolving RebM in filtered water.
(§1) A sensory evaluation of sweetness intensity was performed for each sample by a panel of four experts according to the following evaluation criteria.
(§2) Sweetness intensity was evaluated by 0.0 to 10.0 points based on the following reference samples (negative control (hereinafter referred to as NC) (0.0 point); reference 1 (hereinafter referred to as R1) (3.0 points), reference 2 (hereinafter referred to as R2) (5.0 points); reference 3 (hereinafter referred to as R3) (10.0 points)). The average score (rounded to two decimal places) of each expert panelist was calculated. An average score of 3.0 points or more was considered to be functional. • NC (0.0 point): 0.063 wt % RebM solution (solvent: filtered water) • R1 (3.0 points): 0.063 wt % RebM solution (solvent: filtered water)+dodecanoic acid (1 ppb) • R2 (5.0 points): 0.066 wt % RebM solution (solvent: filtered water) • R3 (10.0 points): 0.069 wt % RebM solution (solvent: filtered water)
A sensory evaluation of sweetness intensity was performed for each sample by a panel of four experts according to the same evaluation criteria as in Experimental Example 20.

[2] = Sensory evaluation of sweetness intensity in sucralose solution (Experimental Examples 23-24); conditions: for sweetness intensity: average score; for concentration at which a sweetness-enhancing effect was confirmed: sucralose solution, added alone, 3.0 points or more
Experimental: A negative control sucralose solution (0.0140 wt % sucralose solution) was prepared by dissolving sucralose in filtered water.
as §1
Sweetness intensity was evaluated by 0.0 to 10.0 point based on the following reference samples (negative control (hereinafter referred to as NC) (0.0 point); reference 1 (hereinafter referred to as R1) (3.0 points), reference 2 (hereinafter referred to as R2) (5.0 points); reference 3 (hereinafter referred to as R3) (10.0 points)). The average score (rounded to two decimal places) of each expert panelist was calculated. An average score of 3.0 points or more was considered to be functional. • NC (0.0 point): 0.0140 wt % sucralose solution (solvent: filtered water) • R1 (3.0 points): 0.0164 wt % sucralose solution (solvent: filtered water) • R2 (5.0 points): 0.0180 wt % sucralose solution (solvent: filtered water) • R3 (10.0 points): 0.0220 wt % sucralose solution (solvent: filtered water)
A sensory evaluation of sweetness intensity was performed for each sample by a panel of four experts according to the same evaluation criteria as in Experimental Example 23.

[3] = Sensory evaluation of sweetness intensity in aspartame solution, four reference samples (Experimental Example 22)
Experimental: A negative control aspartame solution (0.063 wt % aspartame solution) was prepared by dissolving aspartame in filtered water.
as §1
as §2, with “to 10.0 point based on” for “to 10.0 points based on”, “as R1) (3.2 points), reference” for “as R1) (3.0 points), reference”, “wt % aspartame solution (solvent:” for “wt % RebM solution (solvent:”, “• R1 (3.2 points): 0.063” for “• R1 (3.0 points): 0.063”, “(solvent: filtered water)+decanoic acid (10” for “(solvent: filtered water)+dodecanoic acid (1”, “water)+decanoic acid (10 ppb) •” for “water)+dodecanoic acid (1 ppb) •”

[4] = Sensory evaluation of sweetness intensity in RebA solution, four reference samples (Experimental Examples 17-19); conditions: for concentration at which a sweetness-enhancing effect was confirmed: added alone, 3.0 points or more
Experimental: A negative control RebA solution (0.073 wt % RebA solution) was prepared by dissolving RebA in filtered water.
as §1
Sweetness intensity was evaluated by 0.0 to 10.0 points based on the following reference samples (negative control (hereinafter referred to as NC) (0.0 point); reference 1 (hereinafter referred to as R1) (3.2 points), reference 2 (hereinafter referred to as R2) (5.0 points); reference 3 (hereinafter referred to as R3) (10.0 points)). The average score (rounded to two decimal places) of each expert panelist was calculated. An average score of 3.0 points or more was considered to be functional. • NC (0.0 point): 0.073 wt % RebA solution (solvent: filtered water) • R1 (3.2 points): 0.073 wt % RebA solution (solvent: filtered water)+decanoic acid (10 ppb) • R2 (5.0 points): 0.077 wt % RebA solution (solvent: filtered water) • R3 (10.0 points): 0.080 wt % RebA solution (solvent: filtered water)
A sensory evaluation of sweetness intensity was performed for each sample by a panel of four experts according to the same evaluation criteria as in Experimental Example 17.

[5] = added alone at 0.001 ppb to 0.0140 wt % sucralose solution
[6] = added alone at 0.01 ppb to 0.0140 wt % sucralose solution
[7] = added alone at 0.1 ppb to 0.0140 wt % sucralose solution
[8] = added alone at 1 ppb to 0.0140 wt % sucralose solution
[9] = added alone at 10 ppb to 0.0140 wt % sucralose solution
[10] = added alone at 100 ppb to 0.0140 wt % sucralose solution
[11] = added alone at 1000 ppb to 0.0140 wt % sucralose solution
[12] = added alone at 10000 ppb to 0.0140 wt % sucralose solution

`CCCCCCCCCCCC(=O)O` [dodecanoic acid] showed a sweetness intensity ([1]; acid added alone at 0.001 ppb) of 0.8 points, a sweetness intensity ([1]; acid added alone at 0.01 ppb) of 1.7 points and a sweetness intensity ([1]; acid added alone at 0.1 ppb) of 2.5 points. It also gave a sweetness intensity ([1]; acid added alone at 1 ppb) of 3.0 points, a sweetness intensity ([1]; acid added alone at 10 ppb) of 5.0 points and a sweetness intensity ([1]; acid added alone at 100 ppb) of 4.6 points. For the same compound, the sweetness intensity ([1]; acid added alone at 1000 ppb) was 4.7 points, the sweetness intensity ([1]; acid added alone at 10000 ppb) was 4.8 points and the sweetness intensity [2, 5] was 1.0 points. For the same compound, the sweetness intensity [2, 6] was 1.6 points, the sweetness intensity [2, 7] was 2.0 points and the sweetness intensity [2, 8] was 2.5 points. The sweetness intensity [2, 9] was 3.0 points, the sweetness intensity [2, 10] was 3.5 points and the sweetness intensity [2, 11] was 3.9 points. For the same compound, the sweetness intensity [2, 12] was 3.7 points, the “concentration at which a sweetness-enhancing effect was confirmed” value (shortened to “concentration”) [2] was ≥ 10 ppb and the sweetness intensity ([3]; acid added alone at 0.001 ppb) was 1.7 points. The sweetness intensity ([3]; acid added alone at 0.01 ppb) was 2.2 points, the sweetness intensity ([3]; acid added alone at 0.1 ppb) was 2.7 points and the sweetness intensity ([3]; acid added alone at 1 ppb) was 3.3 points. For the same compound, the sweetness intensity ([3]; acid added alone at 10 ppb) was 4.2 points, the sweetness intensity ([3]; acid added alone at 100 ppb) was 4.9 points and the sweetness intensity ([3]; acid added alone at 1000 ppb) was 5.5 points. For the same compound, the sweetness intensity ([3]; acid added alone at 10000 ppb) was 6.1 points, the sweetness intensity ([4]; acid added alone at 0.001 ppb) was 0.6 points and the sweetness intensity ([4]; acid added alone at 0.01 ppb) was 1.3 points. For the same compound, the sweetness intensity ([4]; acid added alone at 0.1 ppb) was 2.3 points, the sweetness intensity ([4]; acid added alone at 1 ppb) was 4.2 points and the sweetness intensity ([4]; acid added alone at 10 ppb) was 5.0 points. It also gave a sweetness intensity ([4]; acid added alone at 100 ppb) of 5.7 points, a sweetness intensity ([4]; acid added alone at 1000 ppb) of 6.0 points and a sweetness intensity ([4]; acid added alone at 10000 ppb) of 6.0 points. The “concentration” value [4] was ≥ 1 ppb.
Work on `CCCCCCCCC(=O)O` [nonanoic acid] yielded a sweetness intensity ([1]; acid added alone at 0.001 ppb) of 0.9 points, a sweetness intensity ([1]; acid added alone at 0.01 ppb) of 1.4 points and a sweetness intensity ([1]; acid added alone at 0.1 ppb) of 2.1 points. The sweetness intensity ([1]; acid added alone at 1 ppb) was 2.8 points, the sweetness intensity ([1]; acid added alone at 10 ppb) was 3.3 points and the sweetness intensity ([1]; acid added alone at 100 ppb) was 4.1 points. It also gave a sweetness intensity ([1]; acid added alone at 1000 ppb) of 4.8 points, a sweetness intensity ([1]; acid added alone at 10000 ppb) of 4.8 points and a sweetness intensity [2, 5] of 1.3 points. For the same compound, the sweetness intensity [2, 6] was 1.8 points, the sweetness intensity [2, 7] was 2.4 points and the sweetness intensity [2, 8] was 3.0 points. For the same compound, the sweetness intensity [2, 9] was 3.5 points, the sweetness intensity [2, 10] was 3.9 points and the sweetness intensity [2, 11] was 4.3 points. The sweetness intensity [2, 12] was 4.2 points, the “concentration” value [2] was ≥ 1 ppb and the sweetness intensity ([3]; acid added alone at 0.001 ppb) was 0.8 points. The sweetness intensity ([3]; acid added alone at 0.01 ppb) was 2.0 points, the sweetness intensity ([3]; acid added alone at 0.1 ppb) was 2.7 points and the sweetness intensity ([3]; acid added alone at 1 ppb) was 3.4 points. It also gave a sweetness intensity ([3]; acid added alone at 10 ppb) of 4.5 points, a sweetness intensity ([3]; acid added alone at 100 ppb) of 4.9 points and a sweetness intensity ([3]; acid added alone at 1000 ppb) of 5.4 points. It also gave a sweetness intensity ([3]; acid added alone at 10000 ppb) of 5.9 points, a sweetness intensity ([4]; acid added alone at 0.001 ppb) of 0.7 points and a sweetness intensity ([4]; acid added alone at 0.01 ppb) of 1.0 points. It also gave a sweetness intensity ([4]; acid added alone at 0.1 ppb) of 1.8 points, a sweetness intensity ([4]; acid added alone at 1 ppb) of 2.8 points and a sweetness intensity ([4]; acid added alone at 10 ppb) of 3.3 points. The sweetness intensity ([4]; acid added alone at 100 ppb) was 4.0 points, the sweetness intensity ([4]; acid added alone at 1000 ppb) was 4.8 points and the sweetness intensity ([4]; acid added alone at 10000 ppb) was 4.4 points. For the same compound, the “concentration” value [4] was ≥ 10 ppb.
